Reference: patent US20090054376A1, “BENZOFURAN DERIVATIVES WITH THERAPEUTIC ACTIVITIES” (Pharmos Corporation, priority 2005, published 2009)

Experiments:
[1] = tested on: TNBS induced inflammatory bowel disease; experiment: TNBS induced inflammatory bowel disease; format: in vivo, Female Balb/C mice; settings: 20 mg/kg i.p. daily
Procedure: Female Balb/C mice (average body weight 20 g, Harlan, Israel) were lightly sedated and challenged rectally, by instillation with 70 μl of 2.5% TNBS (Sigma) dissolved in 50% ethanol, to induce intestinal inflammation and colitis. Animals were weighted before the beginning of the study and treatment was administered i.p. on a daily basis for six days at 20 mg/kg and volume dosage of 5 ml/kg. During the study period of up to 7 days, the following parameters were daily monitored and recorded: body weight, presence of blood in the stool and stool consistency. These findings are scored according to Table 6 [Murthy S.N. et al., Dig. Dis. Sci. 38:1722-34, 1993].
On the last day of the study, animals were euthanized. Abdomen was open and the colon was sectioned at the level of the caecum and the rectum. The colon was weighted and its length was measured. The whole column was excised, slited longitudinally, and examined under a magnifying lens. Any visible damage was recorded and scored for gross pathology according to Wong [Wong et al., J. Pharm. Exp. Ther. 274: 475-80, 1995]. Namely, a score of 0 indicates no damage, 1 indicates localized hyperemia and/or edema, 2 indicates at least two sites of hyperemia and/or edema, 3 indicates localized erosion, 4 indicates localized ulcer and 5 indicates either an erosion site or ulcer extending for more than 2 cm along the colon or at least two sites of erosion or ulcer. Finally, the entire colon was fixed in 4% formaldehyde for histopathological evaluation.
Each treatment group comprised at least seven animals. The following groups served as negative controls: naïve animals, sham animals that received 70 μl of 50% ethanol without TNBS, and TNBS challenged untreated and vehicle treated animals. A group of animals receiving 10 mg/kg sulfasalazine served as positive controls. Sulfasalazine is a standard anti-inflammatory drug used for the treatment of mild to moderate ulcerative colitis and Crohn's disease, and as adjunctive therapy in the treatment of severe ulcerative colitis. This drug is also used for the treatment of non-IBD related disorders, such as rheumatoid arthritis and ankylosing spondylitis. The recognized side effect of this medicament is its hepatotoxicity upon chronic treatment.

Human CB2 Receptor = target: T1, Human CB2 Receptor (Homo sapiens, UniProt P34972); experiment: [35S]GTPγS-binding assay, hCB2; format: biochemical; settings: GTPγS, Human CB2 Receptor, NB = no binding
T1 construct: host or cells: Sf9 or HEK-293 cells (membranes)
T1 sequence (P34972 whole entry): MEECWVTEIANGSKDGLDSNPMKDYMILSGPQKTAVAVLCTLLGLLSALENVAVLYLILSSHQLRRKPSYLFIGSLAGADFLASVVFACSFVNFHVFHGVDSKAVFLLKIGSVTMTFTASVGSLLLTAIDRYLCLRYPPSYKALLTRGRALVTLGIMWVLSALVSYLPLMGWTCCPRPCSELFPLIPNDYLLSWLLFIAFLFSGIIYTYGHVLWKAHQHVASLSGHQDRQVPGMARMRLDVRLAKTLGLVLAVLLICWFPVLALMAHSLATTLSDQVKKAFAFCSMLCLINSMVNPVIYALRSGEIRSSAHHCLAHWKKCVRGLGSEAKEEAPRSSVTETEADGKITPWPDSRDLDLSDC

[2] = tested on: PLP induced remitting-relapsing EAE; experiment: PLP induced remitting-relapsing EAE; format: in vivo, SJL female mice; settings: for average clinical score on the first peak of the disease: vehicle 3.63±0.25; for average clinical score at the second peak of the disease (first relapse): vehicle 3.14±0.48; for reduction in average clinical score at peak as compared to vehicle: first peak; for AUC of clinical score: over 23 days, vehicle 54.13±9.58; for reduction in average clinical score as compared to vehicle: second peak
[3] = tested on: CFA induced rheumatoid arthritis; experiment: CFA induced rheumatoid arthritis; format: in vivo, Female Lewis rats
Procedure: Female Lewis rats (125 g average body weight, Harlan, Israel), at least eight per treatment group were used in this study. CFA was prepared by combining 100 mg of Mycobacterium Tuberculosis (Difco) with 5 ml of incomplete Freund's adjuvant and grinding for about 3 minutes the resulting mixture until a brownish suspension was obtained. The CFA suspension was administered s.c. at the base of the tail, 0.2 ml/animal. Three tests were performed to evaluate the pain and inflammation caused by the disease. These tests were performed before CFA injection to establish baseline values and 14, 21 and 28 days after disease induction. Compounds of the invention were administered daily for fourteen days p.o. at a dose of 10 mg/kg starting on day 14, after disease onset. A group of animals treated with vehicle only at 5 ml/kg served as control.
The parameters monitored were as detailed in Example 18 and include paw edema and redness, and response to thermal and mechanical pain stimuli. At the end of the treatment period the animals were euthanized. The paws were cut and stored in a solution of 4% formalin until histopathological evaluation.
The differences among various treatment groups between the severity of the clinical signs, as expressed by paw swelling and redness, as well as the differences in pain responses, as expressed by Latency Time (sec) and Force (g) needed to observe withdrawal of the paw following thermal and mechanical stimuli, and finally the tissue damage, as expressed by the histological scores, were compared using analysis of variance ANOVA followed by post-hoc t-Test. A value of p<0.05 is considered to be statistically significant.

CCCCC(C)(C)c1cc(O)c2c(c1)OC1CCCCC21 (stereo not shown) [Compound C6S-3, 3-(1,1-dimethylpentyl)-5a,6,7,8,9,9a-hexahydro-dibenzofuran-1-ol]
regained normal weight after [1]: 4 days of treatment | transient loss in body weight ([1]; one day after TNBS instillation): about 5% | mortality ([1]; untreated 60%): 7%

CCCCCCC(C)(C)c1cc(O)c2c(c1)OC1C(O)CCCCC21 (stereo not drawn) [Compound C7S-2, 2-(1,1-dimethylheptyl)-5,6,7,8,9,9a-hexahydro-4bH-10-oxa-benzo[α]azulen-4,9-diol]
EC50 (Human CB2 Receptor): 227 nM | Emax (Human CB2 Receptor; upper plateau of curve): 26% | average clinical score on the first peak of the disease ([2]; 5 mg/kg p.o. daily for 10 days): 2.78±0.15 | average clinical score at the second peak of the disease (first relapse) ([2]; 5 mg/kg p.o.): 1.25±0.41 | average clinical score on the first peak of the disease ([2]; 10 mg/kg i.p. daily for 10 days): 2.43±0.26 | average clinical score at the second peak of the disease (first relapse) ([2]; 10 mg/kg i.p.): 0.57±0.11 | reduction in average clinical score at peak as compared to vehicle ([2]; 5 mg/kg p.o.): 23% | reduction in average clinical score at peak as compared to vehicle ([2]; 10 mg/kg i.p.): 33% | reduction of overall severity of the disease (expressed in AUC) ([2]; i.p.): 64% | AUC of clinical score ([2]; 5 mg/kg p.o.): 28.13±5.74 | AUC of clinical score ([2]; 10 mg/kg i.p.): 19.43±2.51 | reduction of overall severity of the disease (expressed in AUC) ([2]; p.o.): 48% | reduction in average clinical score as compared to vehicle ([2]; i.p.): 82% | reduction in average clinical score as compared to vehicle ([2]; p.o.): 60% | decrease in clinical score as compared to first day of treatment ([3]; after two weeks of treatment, 10 mg/kg p.o.): 44% | average clinical score regarding the edema ([3]; after two weeks of treatment, 10 mg/kg p.o. daily, vehicle 6.67±1.85): 3.29±0.97 | average clinical score regarding the edema ([3]; day 14, at initiation of treatment, 10 mg/kg p.o. group, vehicle 6.00±1.18): 5.86±1.70 | difference in average clinical score in favor of treated animals ([3]; day 21, after a week of treatment, 10 mg/kg p.o. daily, vs vehicle): 1.89 unit | Force increase over baseline ([3]; day 28, 10 mg/kg p.o.): about 63% | Latency increase over baseline values of day 14 ([3]; day 28, 10 mg/kg p.o.): more than 32% | Latency prolonged following thermal stimulus ([3]; day 28 vs day 14, 10 mg/kg p.o.): about 5 seconds | increase of Force needed to elicit a withdrawal response ([3]; day 28 vs day 14, 10 mg/kg p.o., mechanical stimulus): 11.1 grams
